Results on 12 molecules are retold here after PubChem BioAssay (NCI).

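The compound was tested at five concentrations on cells cultured in 96-well plates, with a 48-hour exposure period. GI50 marks 50% less growth. TGI: concentration producing complete growth inhibition.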

Some test systems named below: K-562 leukemia; MCF7 breast; RXF 393 renal; OVCAR-8 ovarian; RPMI-8226 leukemia; SF-295 CNS; HCC-2998 colon; DU-145 prostate; HCT-116 colon; HCT-15 colon.
Holding throughout (assay): inhibition of tumour cell growth, NCI panel, 48 h

Turning to `O=c1ccc(N=Nc2ccc([N+](=O)[O-])cc2)ccc1O`, the GI50 is 3.83 µM in the assay on K-562 leukemia; 4 µM in the assay on MCF7 breast; 7.37 µM in the assay on RXF 393 renal; 3.97 µM in the assay with OVCAR-8 ovarian; 3.15 µM with RPMI-8226 leukemia; 4.57 µM in the assay on SF-295 CNS. Moreover, the GI50 in the assay on HCC-2998 colon was 6.08 µM; in the assay with DU-145 prostate, 19 µM; in the assay on HCT-116 colon, 4.19 µM; with HCT-15 colon it was 3.89 µM. The TGI in the assay on K-562 leukemia, in the assay on MCF7 breast, in the assay with RXF 393 renal, with OVCAR-8 ovarian, in the assay on RPMI-8226 leukemia and in the assay with SF-295 CNS was over 100 µM each time. Further, the TGI in the assay with HCC-2998 colon, with DU-145 prostate, in the assay with HCT-116 colon and in the assay with HCT-15 colon was over 100 µM in each case.

For the molecule `CCC[CH2][Sn]([CH2]CCC)([O]C(=O)c1cc(F)ccc1F)[O][Sn]([CH2]CCC)([CH2]CCC)[O]C(=O)c1cc(F)ccc1F`, the GI50 in the assay with K-562 leukemia is 0.0372 µM; with MCF7 breast, 0.0822 µM; in the assay with RXF 393 renal, 0.0472 µM; in the assay on OVCAR-8 ovarian, 0.374 µM; with RPMI-8226 leukemia, 0.0916 µM; with SF-295 CNS, 0.606 µM. The GI50 was 0.669 µM in the assay on HCC-2998 colon, 0.646 µM in the assay with DU-145 prostate, 0.293 µM with HCT-116 colon and 0.254 µM with HCT-15 colon. Moreover, the TGI is 6.22 µM with K-562 leukemia; 0.776 µM in the assay on MCF7 breast; 0.191 µM in the assay on RXF 393 renal; 1.57 µM with OVCAR-8 ovarian; over 100 µM in the assay on RPMI-8226 leukemia; 1.85 µM in the assay with SF-295 CNS. Moreover, the TGI in the assay with HCC-2998 colon is 1.92 µM; in the assay with DU-145 prostate it was 1.92 µM; with HCT-116 colon, 1.24 µM; with HCT-15 colon, 0.87 µM.

Regarding `CC(C)c1c(C(=O)Nc2ccccc2)c(-c2ccccc2)c(-c2ccc(F)cc2)n1CC[C@@H]1CC=CC(=O)O1`, the GI50 is 0.422 µM in the assay on K-562 leukemia; 1.78 µM with MCF7 breast; 1.62 µM in the assay with RXF 393 renal; 2.23 µM in the assay with OVCAR-8 ovarian; 0.285 µM in the assay on RPMI-8226 leukemia; 3.28 µM in the assay with SF-295 CNS. For the same molecule, the GI50 is 1.92 µM in the assay on HCC-2998 colon, 1.84 µM in the assay with DU-145 prostate, 0.278 µM in the assay with HCT-116 colon and 1.88 µM in the assay on HCT-15 colon. Further, the TGI came to 2.62 µM with K-562 leukemia; 4.01 µM in the assay with MCF7 breast; 3.13 µM in the assay on RXF 393 renal; 5.23 µM in the assay on OVCAR-8 ovarian; 1.17 µM with RPMI-8226 leukemia; 13.6 µM in the assay with SF-295 CNS. Also, the TGI in the assay with HCC-2998 colon came out at 3.5 µM; in the assay on DU-145 prostate, 3.27 µM; in the assay with HCT-116 colon it was 1.23 µM; in the assay on HCT-15 colon it was 3.85 µM.

Take `Nc1cc(C(=O)O)[nH]c(=O)n1`: the TGI in the assay with K-562 leukemia, in the assay with MCF7 breast, in the assay with RXF 393 renal, in the assay on OVCAR-8 ovarian, in the assay on RPMI-8226 leukemia and in the assay with SF-295 CNS was over 100 µM in each case. The TGI in the assay on HCC-2998 colon, with DU-145 prostate, with HCT-116 colon and with HCT-15 colon was over 100 µM in each case.

As for `CC(C)(O)C#Cc1ccc(/C=C/C(=O)c2ccccc2)s1`, the GI50 with K-562 leukemia is 16.5 µM; in the assay on MCF7 breast it was 3.63 µM; with RXF 393 renal, 14.7 µM; with OVCAR-8 ovarian, 15.9 µM; in the assay with RPMI-8226 leukemia, 3.07 µM; in the assay with SF-295 CNS, 17.7 µM. Also, the GI50 in the assay on HCC-2998 colon is 16.6 µM; in the assay with DU-145 prostate it was 14.9 µM; with HCT-116 colon, 4.08 µM; with HCT-15 colon it was 15.7 µM. Further, the TGI in the assay on K-562 leukemia stood at 56.3 µM; in the assay on MCF7 breast, 16.7 µM; in the assay with RXF 393 renal, 28.7 µM; with OVCAR-8 ovarian it was 29.9 µM; with RPMI-8226 leukemia, 11.5 µM; with SF-295 CNS it was 35.5 µM. The TGI was 30.7 µM in the assay with HCC-2998 colon, 28.1 µM in the assay with DU-145 prostate, 15.4 µM in the assay on HCT-116 colon and 30.8 µM in the assay on HCT-15 colon.

`CCCCOc1ccc(NC(=O)n2nc(N)c3ccccc32)cc1`: the GI50 with K-562 leukemia was 11.5 µM; in the assay with MCF7 breast, 5.62 µM; in the assay with RXF 393 renal, 25.8 µM; in the assay with OVCAR-8 ovarian it was 30.3 µM; with RPMI-8226 leukemia, 2.63 µM; in the assay on SF-295 CNS, 23.5 µM. Further, the GI50 was 17 µM in the assay with HCC-2998 colon, 19.8 µM in the assay with DU-145 prostate, 19.3 µM in the assay on HCT-116 colon and 16.9 µM in the assay with HCT-15 colon. For the same molecule, the TGI in the assay on K-562 leukemia was 50.4 µM; in the assay on MCF7 breast, 32.3 µM; with RXF 393 renal, 61.2 µM; with OVCAR-8 ovarian it was over 85.9 µM; in the assay on RPMI-8226 leukemia, 28.4 µM; in the assay on SF-295 CNS it was 79.3 µM. The TGI in the assay with HCC-2998 colon came out at 37 µM; in the assay on DU-145 prostate, 70 µM; in the assay with HCT-116 colon it was 55.7 µM; in the assay with HCT-15 colon, 70.4 µM.

In the case of `CC/C(=C(/c1ccc(OCCN(C)C)cc1)c1ccc(OC(=O)CCC(=O)c2c(C)[nH]c(/C=C3\N=C(c4ccc[nH]4)C=C3OC)c2C)cc1)c1ccccc1`, the GI50 is 2.32 µM with K-562 leukemia; under 0.0217 µM in the assay with MCF7 breast; 2.34 µM in the assay on RXF 393 renal; 2.73 µM in the assay with OVCAR-8 ovarian; 1.57 µM in the assay on RPMI-8226 leukemia; 2.61 µM in the assay on SF-295 CNS. Moreover, the GI50 in the assay on HCC-2998 colon was 3.72 µM; in the assay with DU-145 prostate it was 3.27 µM; in the assay on HCT-116 colon it was 0.792 µM; in the assay on HCT-15 colon, 0.934 µM. The TGI was determined as 6.37 µM in the assay with K-562 leukemia; 2.66 µM in the assay on MCF7 breast; 12.6 µM in the assay on RXF 393 renal; 10.3 µM in the assay with OVCAR-8 ovarian; 5.58 µM in the assay with RPMI-8226 leukemia; 9.06 µM in the assay with SF-295 CNS. Besides, the TGI in the assay on HCC-2998 colon is 13.4 µM; in the assay with DU-145 prostate it was 16.8 µM; in the assay on HCT-116 colon it was 3.26 µM; in the assay on HCT-15 colon, 4.48 µM.

In the case of `CCOC(=O)/C(=N\OC)C(O)C(F)(F)F` (stereo not given), the TGI with K-562 leukemia, with MCF7 breast, in the assay on RXF 393 renal, in the assay on OVCAR-8 ovarian, with RPMI-8226 leukemia and in the assay on SF-295 CNS was over 100 µM in each case. The TGI in the assay on HCC-2998 colon, in the assay on DU-145 prostate, with HCT-116 colon and in the assay on HCT-15 colon was over 100 µM each time.

For the molecule `CCCc1cc(O)c2c3c(c(=O)oc2c1)CN(C)CC3`, the GI50 in the assay on K-562 leukemia is 31.8 µM; with MCF7 breast, 44.8 µM; in the assay on RXF 393 renal it was 23.1 µM; in the assay on OVCAR-8 ovarian, over 100 µM; in the assay on RPMI-8226 leukemia it was 24.2 µM; in the assay with SF-295 CNS, 28.3 µM. The GI50 in the assay with HCC-2998 colon is 30.7 µM; in the assay on DU-145 prostate, over 100 µM; in the assay with HCT-116 colon, 66.8 µM; with HCT-15 colon, 39.9 µM. In addition, the TGI in the assay on K-562 leukemia was over 100 µM; with MCF7 breast, over 100 µM; with RXF 393 renal it was over 100 µM; in the assay with OVCAR-8 ovarian, over 100 µM; in the assay with RPMI-8226 leukemia, 91.2 µM; in the assay with SF-295 CNS it was over 100 µM. Besides, the TGI is 69.7 µM in the assay with HCC-2998 colon, over 100 µM with DU-145 prostate, over 100 µM in the assay on HCT-116 colon and over 100 µM in the assay on HCT-15 colon.

Turning to `CCOC(=O)c1sc2ncn(Cc3cccc(Br)c3)c(=O)c2c1C`, the GI50 is 16.8 µM with K-562 leukemia; 31.4 µM in the assay with MCF7 breast; 29 µM in the assay on RXF 393 renal; 51.1 µM in the assay with OVCAR-8 ovarian; 27.6 µM with RPMI-8226 leukemia; 64.9 µM in the assay with SF-295 CNS. Besides, the GI50 was 66.8 µM in the assay on HCC-2998 colon, 88.8 µM in the assay with DU-145 prostate, 30.7 µM with HCT-116 colon and 62.4 µM in the assay with HCT-15 colon. Moreover, the TGI in the assay with K-562 leukemia, in the assay with MCF7 breast, with RXF 393 renal, in the assay on OVCAR-8 ovarian, with RPMI-8226 leukemia and in the assay on SF-295 CNS was over 100 µM in each case. For the same molecule, the TGI in the assay with HCC-2998 colon is over 100 µM; in the assay on DU-145 prostate, over 100 µM; in the assay on HCT-116 colon, 93.8 µM; in the assay with HCT-15 colon, over 100 µM.

For the molecule `CCOc1ccc(-c2cnnn2-c2nonc2-n2cccc2)cc1`, the GI50 in the assay with K-562 leukemia was 0.0638 µM; with MCF7 breast it was 0.283 µM; with RXF 393 renal, 0.172 µM; in the assay with OVCAR-8 ovarian it was 0.439 µM; in the assay with RPMI-8226 leukemia, 0.32 µM; in the assay on SF-295 CNS, 0.295 µM. For the same molecule, the GI50 in the assay with HCC-2998 colon is 0.364 µM; with DU-145 prostate it was 0.286 µM; in the assay on HCT-116 colon, 0.226 µM; in the assay on HCT-15 colon it was 0.251 µM. The TGI is over 100 µM in the assay on K-562 leukemia; over 100 µM in the assay on MCF7 breast; 0.774 µM in the assay with RXF 393 renal; over 100 µM in the assay on OVCAR-8 ovarian; 10.9 µM in the assay on RPMI-8226 leukemia; over 91.2 µM with SF-295 CNS. Moreover, the TGI in the assay on HCC-2998 colon is over 33 µM; in the assay with DU-145 prostate, 0.905 µM; in the assay with HCT-116 colon, 1.46 µM; with HCT-15 colon it was over 100 µM.

Turning to `C#CCN(Cc1nc2cc(C(F)(F)F)ccc2nc1-c1ccccc1)c1ccc(OC(F)(F)F)cc1`, the GI50 was 33.9 µM with K-562 leukemia; 32 µM in the assay with MCF7 breast; 46.7 µM in the assay on RXF 393 renal; 74.3 µM in the assay on OVCAR-8 ovarian; 23.3 µM in the assay with RPMI-8226 leukemia; over 100 µM with SF-295 CNS. In addition, the GI50 is 30.3 µM with HCC-2998 colon, 36.5 µM with DU-145 prostate, 25 µM in the assay on HCT-116 colon and over 100 µM in the assay with HCT-15 colon. The TGI in the assay on K-562 leukemia, with MCF7 breast, with RXF 393 renal, in the assay with OVCAR-8 ovarian, with RPMI-8226 leukemia and in the assay on SF-295 CNS was over 100 µM in each case. For the same molecule, the TGI in the assay with HCC-2998 colon is 91.9 µM; with DU-145 prostate, over 100 µM; with HCT-116 colon, over 100 µM; with HCT-15 colon, over 100 µM.
